Data published in PubChem BioAssay (NCI).
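Protocol summary: plate cells (96-well), add compound at 5 concentrations, incubate 48 h, interpolate endpoints linearly. Definition used: TGI = concentration required for complete inhibition of growth.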

Assays:
Assay in all cases: NCI tumour cell line growth inhibition, 48 h
786-0 renal = system: 786-0 renal
A498 renal = system: A498 renal
A549 NSCLC = system: A549 NSCLC
ACHN renal = system: ACHN renal
BT-549 breast = system: BT-549 breast
CAKI-1 renal = system: CAKI-1 renal
CCRF-CEM leukemia = system: CCRF-CEM leukemia
COLO 205 colon = system: COLO 205 colon
DU-145 prostate = system: DU-145 prostate
EKVX NSCLC = system: EKVX NSCLC
HCC-2998 colon = system: HCC-2998 colon
HCT-116 colon = system: HCT-116 colon
HCT-15 colon = system: HCT-15 colon
HL-60(TB) leukemia = system: HL-60(TB) leukemia
HOP-62 NSCLC = system: HOP-62 NSCLC
HOP-92 NSCLC = system: HOP-92 NSCLC
HS 578T breast = system: HS 578T breast
HT29 colon = system: HT29 colon
IGROV1 ovarian = system: IGROV1 ovarian
K-562 leukemia = system: K-562 leukemia
KM12 colon = system: KM12 colon
LOX IMVI melanoma = system: LOX IMVI melanoma
M14 melanoma = system: M14 melanoma
MALME-3M melanoma = system: MALME-3M melanoma
MCF7 breast = system: MCF7 breast
MDA-MB-231 breast = system: MDA-MB-231 breast
MDA-MB-435 = system: MDA-MB-435
MDA-N = system: MDA-N
MOLT-4 leukemia = system: MOLT-4 leukemia
NCI-H226 lung = system: NCI-H226 lung
NCI-H23 lung = system: NCI-H23 lung
NCI-H460 lung = system: NCI-H460 lung
NCI-H522 lung = system: NCI-H522 lung
NCI/ADR-RES ovarian = system: NCI/ADR-RES ovarian
OVCAR-3 ovarian = system: OVCAR-3 ovarian
OVCAR-4 ovarian = system: OVCAR-4 ovarian
OVCAR-5 ovarian = system: OVCAR-5 ovarian
OVCAR-8 ovarian = system: OVCAR-8 ovarian
PC-3 prostate = system: PC-3 prostate
RPMI-8226 leukemia = system: RPMI-8226 leukemia
RXF 393 renal = system: RXF 393 renal
SF-268 CNS = system: SF-268 CNS
SF-295 CNS = system: SF-295 CNS
SF-539 CNS = system: SF-539 CNS
SK-MEL-2 melanoma = system: SK-MEL-2 melanoma
SK-MEL-28 melanoma = system: SK-MEL-28 melanoma
SK-MEL-5 melanoma = system: SK-MEL-5 melanoma
SK-OV-3 ovarian = system: SK-OV-3 ovarian
SN12C renal = system: SN12C renal
SNB-19 CNS = system: SNB-19 CNS
SNB-75 CNS = system: SNB-75 CNS
SW-620 colon = system: SW-620 colon
T-47D breast = system: T-47D breast
TK-10 renal = system: TK-10 renal
U251 CNS = system: U251 CNS
UACC-257 melanoma = system: UACC-257 melanoma
UACC-62 melanoma = system: UACC-62 melanoma
UO-31 renal = system: UO-31 renal
SR leukemia = system: SR leukemia

## CN(C)c1ccc(/C=C(\NC(=O)c2ccccc2)C(=O)Nc2ccccc2C(=O)NCc2ccccc2)cc1
786-0 renal
  TGI: > 100 µM
A498 renal
  TGI: > 100 µM
A549 NSCLC
  TGI: > 100 µM
ACHN renal
  TGI: > 100 µM
BT-549 breast
  TGI: > 100 µM
CAKI-1 renal
  TGI: > 100 µM
CCRF-CEM leukemia
  TGI: > 100 µM
COLO 205 colon
  TGI: > 100 µM
DU-145 prostate
  TGI: > 100 µM
EKVX NSCLC
  TGI: > 100 µM
HCC-2998 colon
  TGI: > 100 µM
HCT-116 colon
  TGI: > 100 µM
HCT-15 colon
  TGI: > 100 µM
HL-60(TB) leukemia
  TGI: > 100 µM
HOP-62 NSCLC
  TGI: > 100 µM
HOP-92 NSCLC
  TGI: > 100 µM
HS 578T breast
  TGI: > 100 µM
HT29 colon
  TGI: > 100 µM
IGROV1 ovarian
  TGI: > 100 µM
K-562 leukemia
  TGI: > 100 µM
KM12 colon
  TGI: > 100 µM
LOX IMVI melanoma
  TGI: > 100 µM
M14 melanoma
  TGI: > 100 µM
MALME-3M melanoma
  TGI: > 100 µM
MCF7 breast
  TGI: > 100 µM
MDA-MB-231 breast
  TGI: > 100 µM
MDA-MB-435
  TGI: > 100 µM
MDA-N
  TGI: > 100 µM
MOLT-4 leukemia
  TGI: > 100 µM
NCI-H226 lung
  TGI: > 100 µM
NCI-H23 lung
  TGI: > 100 µM
NCI-H460 lung
  TGI: > 100 µM
NCI-H522 lung
  TGI: 93.3 µM
NCI/ADR-RES ovarian
  TGI: > 100 µM
OVCAR-3 ovarian
  TGI: > 100 µM
OVCAR-4 ovarian
  TGI: > 100 µM
OVCAR-5 ovarian
  TGI: > 100 µM
OVCAR-8 ovarian
  TGI: > 100 µM
PC-3 prostate
  TGI: > 100 µM
RPMI-8226 leukemia
  TGI: > 100 µM
RXF 393 renal
  TGI: > 100 µM
SF-268 CNS
  TGI: > 100 µM
SF-295 CNS
  TGI: > 100 µM
SF-539 CNS
  TGI: > 100 µM
SK-MEL-2 melanoma
  TGI: > 100 µM
SK-MEL-28 melanoma
  TGI: > 100 µM
SK-MEL-5 melanoma
  TGI: > 100 µM
SK-OV-3 ovarian
  TGI: > 100 µM
SN12C renal
  TGI: > 100 µM
SNB-19 CNS
  TGI: > 100 µM
SNB-75 CNS
  TGI: > 100 µM
SW-620 colon
  TGI: > 100 µM
T-47D breast
  TGI: > 100 µM
TK-10 renal
  TGI: > 100 µM
U251 CNS
  TGI: > 100 µM
UACC-257 melanoma
  TGI: > 100 µM
UACC-62 melanoma
  TGI: > 100 µM
UO-31 renal
  TGI: > 100 µM

## O=C1C(Br)=C(C2=CC(=P(c3ccccc3)(c3ccccc3)c3ccccc3)C=C2)C(=O)C(Br)=C1C1=CC(=P(c2ccccc2)(c2ccccc2)c2ccccc2)C=C1
786-0 renal
  TGI: > 100 µM
A498 renal
  TGI: > 100 µM
A549 NSCLC
  TGI: > 100 µM
ACHN renal
  TGI: > 100 µM
BT-549 breast
  TGI: > 100 µM
CAKI-1 renal
  TGI: > 100 µM
CCRF-CEM leukemia
  TGI: > 100 µM
COLO 205 colon
  TGI: > 100 µM
DU-145 prostate
  TGI: > 100 µM
EKVX NSCLC
  TGI: 34 µM
HCT-116 colon
  TGI: > 100 µM
HL-60(TB) leukemia
  TGI: > 100 µM
HOP-62 NSCLC
  TGI: > 100 µM
HOP-92 NSCLC
  TGI: 55.5 µM
HS 578T breast
  TGI: > 100 µM
HT29 colon
  TGI: > 100 µM
IGROV1 ovarian
  TGI: > 100 µM
K-562 leukemia
  TGI: > 100 µM
KM12 colon
  TGI: > 100 µM
LOX IMVI melanoma
  TGI: > 100 µM
M14 melanoma
  TGI: 25.1 µM
MALME-3M melanoma
  TGI: 34.1 µM
MCF7 breast
  TGI: > 100 µM
MDA-MB-231 breast
  TGI: > 100 µM
MDA-N
  TGI: > 100 µM
MOLT-4 leukemia
  TGI: > 100 µM
NCI-H23 lung
  TGI: > 100 µM
NCI-H522 lung
  TGI: 42.9 µM
NCI/ADR-RES ovarian
  TGI: > 100 µM
OVCAR-3 ovarian
  TGI: > 100 µM
OVCAR-4 ovarian
  TGI: > 100 µM
OVCAR-5 ovarian
  TGI: 31.7 µM
OVCAR-8 ovarian
  TGI: > 100 µM
PC-3 prostate
  TGI: > 100 µM
RPMI-8226 leukemia
  TGI: > 100 µM
RXF 393 renal
  TGI: > 100 µM
SF-268 CNS
  TGI: > 100 µM
SF-295 CNS
  TGI: > 100 µM
SF-539 CNS
  TGI: > 100 µM
SK-MEL-2 melanoma
  TGI: > 100 µM
SK-MEL-28 melanoma
  TGI: > 100 µM
SK-MEL-5 melanoma
  TGI: > 100 µM
SK-OV-3 ovarian
  TGI: > 100 µM
SN12C renal
  TGI: > 100 µM
SNB-19 CNS
  TGI: > 100 µM
SNB-75 CNS
  TGI: > 100 µM
SR leukemia
  TGI: > 100 µM
SW-620 colon
  TGI: 35 µM
T-47D breast
  TGI: > 100 µM
TK-10 renal
  TGI: > 100 µM
U251 CNS
  TGI: 30.6 µM
UACC-257 melanoma
  TGI: 95.1 µM
UACC-62 melanoma
  TGI: > 100 µM
UO-31 renal
  TGI: > 100 µM

## COc1ccc(-c2nc(N3CCCC3)no2)cc1
786-0 renal
  TGI: > 100 µM
A498 renal
  TGI: > 100 µM
A549 NSCLC
  TGI: > 100 µM
ACHN renal
  TGI: > 75 µM
BT-549 breast
  TGI: > 100 µM
CAKI-1 renal
  TGI: > 100 µM
CCRF-CEM leukemia
  TGI: > 71.5 µM
COLO 205 colon
  TGI: > 100 µM
DU-145 prostate
  TGI: > 100 µM
EKVX NSCLC
  TGI: > 100 µM
HCC-2998 colon
  TGI: > 100 µM
HCT-116 colon
  TGI: > 100 µM
HCT-15 colon
  TGI: > 100 µM
HL-60(TB) leukemia
  TGI: > 100 µM
HOP-62 NSCLC
  TGI: > 100 µM
HOP-92 NSCLC
  TGI: > 94 µM
HS 578T breast
  TGI: > 100 µM
HT29 colon
  TGI: > 100 µM
IGROV1 ovarian
  TGI: > 100 µM
K-562 leukemia
  TGI: > 100 µM
KM12 colon
  TGI: > 100 µM
LOX IMVI melanoma
  TGI: > 100 µM
M14 melanoma
  TGI: > 100 µM
MALME-3M melanoma
  TGI: > 100 µM
MCF7 breast
  TGI: > 100 µM
MDA-MB-231 breast
  TGI: > 100 µM
MDA-MB-435
  TGI: > 100 µM
MDA-N
  TGI: > 100 µM
MOLT-4 leukemia
  TGI: > 100 µM
NCI-H226 lung
  TGI: > 100 µM
NCI-H23 lung
  TGI: > 100 µM
NCI-H460 lung
  TGI: > 100 µM
NCI-H522 lung
  TGI: > 94.6 µM
NCI/ADR-RES ovarian
  TGI: > 100 µM
OVCAR-3 ovarian
  TGI: > 100 µM
OVCAR-4 ovarian
  TGI: > 100 µM
OVCAR-5 ovarian
  TGI: > 100 µM
OVCAR-8 ovarian
  TGI: > 100 µM
PC-3 prostate
  TGI: > 100 µM
RPMI-8226 leukemia
  TGI: > 100 µM
RXF 393 renal
  TGI: > 72.4 µM
SF-268 CNS
  TGI: > 100 µM
SF-295 CNS
  TGI: > 100 µM
SF-539 CNS
  TGI: > 100 µM
SK-MEL-2 melanoma
  TGI: > 100 µM
SK-MEL-28 melanoma
  TGI: > 100 µM
SK-MEL-5 melanoma
  TGI: > 100 µM
SK-OV-3 ovarian
  TGI: > 100 µM
SN12C renal
  TGI: > 100 µM
SNB-19 CNS
  TGI: > 100 µM
SNB-75 CNS
  TGI: > 94.8 µM
SW-620 colon
  TGI: > 100 µM
T-47D breast
  TGI: > 100 µM
TK-10 renal
  TGI: > 100 µM
U251 CNS
  TGI: > 100 µM
UACC-257 melanoma
  TGI: > 100 µM
UACC-62 melanoma
  TGI: > 100 µM
UO-31 renal
  TGI: > 100 µM
